Measured values as given in ChEMBL document CHEMBL5532678, “Comprehensive Insights that Targeting PIM for Cancer Therapy: Prospects and Obstacles” (J Med Chem, 2024).
Values belong to the compound of their own block, whether it stands above or below them.

Key:
[1] = molecular target: T1, Serine/threonine-protein kinase pim-1 (Homo sapiens, UniProt P11309); assay: Inhibition of human PIM1 by ADP Glo luminescent assay
MV4-11 = assay: Antiproliferative activity against human MV4-11 cells assessed as inhibition of cell growth incubated for 72 hrs by Celltiter-glo assay; type: functional, cell-based; settings: MV4-11, 72 h
HCT-116 [2] = assay: Antiproliferative activity against human HCT-116 cells assessed as inhibition of cell growth incubated for 72 hrs by celltiter-glo assay; type: functional, cell-based; settings: HCT-116, 72 h
[3] = molecular target: T2, Serine/threonine-protein kinase pim-2 (Homo sapiens, UniProt Q9P1W9); assay: Inhibition of human PIM2 by ADP-Glo luminescent assay
[4] = molecular target: T1, Serine/threonine-protein kinase pim-1; assay: Inhibition of human full length-His6 tagged PIM1 (1 to 312 residues) expressed in Escherichia coli BL21 (DE3) using RSRHSSYPAGT as peptide substrate incubated for 10 mins in presence of [gamma-32P]ATP by radiometric scintillation assay
[5] = molecular target: T2, Serine/threonine-protein kinase pim-2; assay: Inhibition of human full length-His6 tagged PIM2 (1 to 311 residues) expressed in Escherichia coli BL21 (DE3) assessed as inhibition constant using RSRHSSYPAGT as peptide substrate incubated for 10 mins in presence of [gamma-32P]ATP by radiometric scintillation assay
[6] = molecular target: T1, Serine/threonine-protein kinase pim-1; assay: Binding affinity to PIM1 (unknown origin) assessed as inhibition constant
[7] = molecular target: T2, Serine/threonine-protein kinase pim-2; assay: Binding affinity to PIM2 (unknown origin) assessed as inhibition constant
HCT-116 [8] = assay: Antiproliferative activity against human HCT-116 cells assessed as inhibition of cell growth incubated for 24 hrs by MTT assay; type: functional, cell-based; settings: HCT-116, 24 h
MCF7 [9] = assay: Antiproliferative activity against human MCF7 cells assessed as reduction in cell growth incubated for 48 hrs by MTT assay; type: functional, cell-based; settings: MCF7, 48 h
[10] = molecular target: T1, Serine/threonine-protein kinase pim-1; assay: Inhibition of human PIM1 by discoverX kinome scan assay
[11] = molecular target: Serine/threonine-protein kinase mTOR (Homo sapiens, UniProt P42345); assay: Inhibition of mTOR (unknown origin)
[12] = Inhibition of PI3K (unknown origin); set-up: species or system Homo sapiens
[13] = molecular target: T2, Serine/threonine-protein kinase pim-2; assay: Inhibition of PIM2 (unknown origin) by FRET based Z-LYTE kinase assay
[14] = molecular target: T3, Serine/threonine-protein kinase pim-3 (Homo sapiens, UniProt Q86V86); assay: Inhibition of PIM3 (unknown origin) by FRET based Z-LYTE kinase assay
[15] = molecular target: T1, Serine/threonine-protein kinase pim-1; assay: Inhibition of PIM1 (unknown origin) by FRET based Z-LYTE kinase assay
[16] = molecular target: T4, Prostaglandin G/H synthase 2 (Homo sapiens, UniProt P35354); assay: Inhibition of COX2 (unknown origin) fluorescence based analysis
T4 sequence (P35354 whole entry): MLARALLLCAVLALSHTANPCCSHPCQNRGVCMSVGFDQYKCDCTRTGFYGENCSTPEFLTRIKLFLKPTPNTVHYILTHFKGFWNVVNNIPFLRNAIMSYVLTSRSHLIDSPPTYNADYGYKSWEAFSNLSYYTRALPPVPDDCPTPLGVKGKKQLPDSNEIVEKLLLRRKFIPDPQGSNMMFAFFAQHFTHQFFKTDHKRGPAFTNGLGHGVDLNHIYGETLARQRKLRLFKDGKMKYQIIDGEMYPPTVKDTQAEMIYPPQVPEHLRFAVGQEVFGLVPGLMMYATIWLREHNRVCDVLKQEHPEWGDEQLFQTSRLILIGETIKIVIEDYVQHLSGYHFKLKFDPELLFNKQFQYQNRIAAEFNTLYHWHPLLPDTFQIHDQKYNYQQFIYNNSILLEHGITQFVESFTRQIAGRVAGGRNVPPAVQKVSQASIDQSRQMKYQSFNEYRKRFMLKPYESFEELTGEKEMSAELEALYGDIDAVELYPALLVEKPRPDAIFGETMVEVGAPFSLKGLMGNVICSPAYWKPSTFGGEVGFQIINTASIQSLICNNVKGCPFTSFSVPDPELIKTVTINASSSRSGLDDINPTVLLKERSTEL

[17] = molecular target: T2, Serine/threonine-protein kinase pim-2; assay: Inhibition of N-terminal GST-tagged full length human PIM2 (1 to 311 residues) expressed in baculovirus expression system using S6K2 peptide as substrate at 1 uM in presence of ATP by Mobility shift assay
[18] = molecular target: T5, Polyunsaturated fatty acid 5-lipoxygenase (Homo sapiens, UniProt P09917); assay: Inhibition of 5-LOX in human PMNL cells; type: cell-based
T5 sequence (P09917 whole entry): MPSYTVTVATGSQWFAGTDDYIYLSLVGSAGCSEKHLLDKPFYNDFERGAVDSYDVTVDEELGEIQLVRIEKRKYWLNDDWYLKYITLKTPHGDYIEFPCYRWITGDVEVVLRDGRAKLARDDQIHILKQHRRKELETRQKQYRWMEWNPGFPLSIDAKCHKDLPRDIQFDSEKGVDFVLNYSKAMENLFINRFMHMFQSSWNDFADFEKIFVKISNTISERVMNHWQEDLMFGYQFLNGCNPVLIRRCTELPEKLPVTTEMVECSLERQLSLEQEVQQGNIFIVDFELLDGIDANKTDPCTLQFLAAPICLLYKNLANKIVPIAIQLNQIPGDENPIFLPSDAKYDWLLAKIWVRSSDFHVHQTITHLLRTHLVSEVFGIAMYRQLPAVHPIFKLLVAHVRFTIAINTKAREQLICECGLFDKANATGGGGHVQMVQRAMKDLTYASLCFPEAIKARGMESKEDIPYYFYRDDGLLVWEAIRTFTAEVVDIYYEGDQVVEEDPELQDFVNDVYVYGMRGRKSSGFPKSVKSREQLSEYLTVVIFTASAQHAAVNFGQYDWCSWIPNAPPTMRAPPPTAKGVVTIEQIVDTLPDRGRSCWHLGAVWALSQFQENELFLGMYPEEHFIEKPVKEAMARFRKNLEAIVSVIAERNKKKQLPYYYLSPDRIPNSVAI

[19] = molecular target: T1, Serine/threonine-protein kinase pim-1; assay: Inhibition of human recombinant PIM1
[20] = molecular target: Prostaglandin G/H synthase 1 (Homo sapiens, UniProt P23219); assay: Inhibition of COX1 (unknown origin) fluorescence based analysis
[21] = molecular target: T1, Serine/threonine-protein kinase pim-1; assay: Inhibition of human PIM1 using KKRNRTLTK as substrate in presence of [gamma-33P]-ATP by hotspot kinase assay
[22] = molecular target: T3, Serine/threonine-protein kinase pim-3; assay: Inhibition of N-terminal GST-tagged full length human PIM3 (1 to 326 residues) expressed in baculovirus expression system using S6K2 peptide as substrate at 1 uM in presence of ATP by Mobility shift assay
MCF7 [23] = assay: Cytotoxicity against human MCF7 cells assessed as reduction in cell viability by MTT assay; type: functional, cell-based

Structure (SMILES): Cc1nc2cccc3c2nc1N[C@H](C)/C=C\C[C@H]1CNC(=O)c2cc-3[nH]c21
IC50 [1]: 130 nM
IC50 (MV4-11): 35500 nM
IC50 (HCT-116 [2]): 45300 nM
IC50 [3]: 500 nM

Structure (SMILES): CC(C)(C)Nc1nnc(-c2ccc3[nH]cc(-c4nccc(C5CC5)n4)c3c2)o1
Ki [6]: 0.55 nM
Ki [7]: 0.28 nM

Structure (SMILES): Cc1nc2sc3c(c2c(C)c1Br)NC(c1ccc(O)c(O)c1)NC3=O (stereo not given)
IC50 (HCT-116 [8]): 370 nM
IC50 (MCF7 [9]): 220 nM

Structure (SMILES): N#Cc1nnc2c3c(-c4ccccc4Cl)c(C#N)c(=O)[nH]c3nn2c1N
IC50 [10]: 43000 nM

Structure (SMILES): COc1ncc2cc1NS(=O)(=O)c1cccc(c1)C(=O)NCc1cccc(c1)-c1ncnc3c1SC2=C3
IC50 [11]: > 10000 nM
IC50 [12]: 16.8 nM

Structure (SMILES): COc1ncc2cc1NS(=O)(=O)c1ccc(F)c(c1)C(=O)NCC1=CC=C(S1)c1ncnc3c1SC2=C3C
IC50 [11]: 74500 nM
IC50 [12]: 0.13 nM

Structure (SMILES): CN1CCN(C[C@@H](NC(=O)CC2CNC(=O)c3cc(-c4cccc(Cl)c4)cn32)C2CCCCC2)CC1 (stereo not given in full)
IC50 [4]: 1.5 nM

Structure (SMILES): N#Cc1c(-c2ccccc2)cc(-c2ccccc2)nc1OCC(=O)NO
IC50 [21]: 427 nM

Now from value to compound, other results behind:

IC50 [4]: 7 nM
IC50 [5]: 25000 nM
Structure (SMILES): Cc1cccc(-c2c(-c3cccc(OC(F)(F)F)c3)cc3n2[C@@H](CCN)CNC3=O)c1

IC50 (HCT-116 [8]): 360 nM
IC50 (MCF7 [9]): 460 nM
Structure (SMILES): COc1cc(C2NC(=O)c3sc4nc(C)c(Br)c(C)c4c3N2)ccc1O (stereo not given)

IC50 [13]: 310 nM
IC50 [14]: 170 nM
IC50 [15]: 420 nM
Structure (SMILES): CCOc1cc(/C=C2\SC(=S)NC2=O)ccc1O

IC50 [13]: 16000 nM
IC50 [14]: 6400 nM
IC50 [15]: 16000 nM
Structure (SMILES): CN1CCN(c2ccc(-n3cnc4ccc(/C=C5\SC(=S)NC5=O)cc43)cc2)CC1

IC50 [16]: 9110 nM
IC50 [17]: 1740 nM
IC50 [18]: 3160 nM
IC50 [19]: 4090 nM
IC50 [20]: 200 nM
Structure (SMILES): Cc1ccc(C(C)C)c(O)c1/C=N/N=C1/SC(CC(=O)O)C(=O)N1c1cccc2ccccc12 (stereo not given)

IC50 [4]: 470 nM
IC50 [22]: 360 nM
IC50 [5]: 220 nM
Structure (SMILES): COc1ccc(/C=C/C(/C=C2/C(=O)Nc3cc(Br)ccc32)=N/O)cc1

IC50 [10]: 12700 nM
Structure (SMILES): COc1ccc(N2CCN(C(=O)c3sc4nc(C)c(Br)c(C)c4c3N)CC2)cc1
IC50 (MCF7 [23]): 107000 nM

IC50 [16]: 37 nM
IC50 [17]: 976 nM
IC50 [18]: 2810 nM
IC50 [19]: 7210 nM
IC50 [20]: 14000 nM
Structure (SMILES): COc1ccc(N2C(=O)C(CC(=O)O)S/C2=N/N=C/c2c(C)ccc(C(C)C)c2O)cc1 (stereo not given)
